Source: patent US20040171688A1, “Carboxylic acids and derivatives thereof and pharmaceutical compositions containing them” (priority 1997, published 2004)

Columns and labels:
HNF-4α [1] = target: T1, HNF-4α (Rattus norvegicus, UniProt P22449); test: Gel mobility shift assay: His-HNF-4α binding to C3P apo CIII promoter oligonucleotide; assay type: biochemical; set-up: The full length HNF-4α1 cDNA cloned into 6His-pET11d vector was expressed in E.coli BL21 (DE3)plysS; 6His; made in house; host or cells: E. coli BL21 (DE3)plysS; conditions: for direct effect on HNF-4α (summary): summary statement of Example 4
T1 sequence (P22449 1-464 isoform P22449-2): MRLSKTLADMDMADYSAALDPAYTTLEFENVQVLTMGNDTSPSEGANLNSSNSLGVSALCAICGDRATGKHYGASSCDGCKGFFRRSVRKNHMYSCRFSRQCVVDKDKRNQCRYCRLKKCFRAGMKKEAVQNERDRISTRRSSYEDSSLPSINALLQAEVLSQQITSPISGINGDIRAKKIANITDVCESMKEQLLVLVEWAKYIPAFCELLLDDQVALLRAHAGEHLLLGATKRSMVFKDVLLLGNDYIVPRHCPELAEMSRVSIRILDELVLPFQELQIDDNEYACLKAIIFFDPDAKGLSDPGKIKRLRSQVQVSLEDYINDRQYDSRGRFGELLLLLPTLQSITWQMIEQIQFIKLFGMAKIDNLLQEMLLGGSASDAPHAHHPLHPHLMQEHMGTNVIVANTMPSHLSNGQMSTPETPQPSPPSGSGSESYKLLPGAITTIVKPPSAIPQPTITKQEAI
Procedure: a. His-HNF-4I (14 ng) binding to C3P in the absence (lane 1) or presence of 10 μM each of myristoyl(14:0)-CoA (lane 2) or palmitoyl(16:0)-CoA (lane 3).
b. His-HNF-4I (20 ng) binding to C3P in the absence (lane 1) or presence of 10 μM each of stearoyl(18:0)-CoA (lane 2) or linolenoyl(18:3, w-3)-CoA (lane 3).
c. Activation of His-HNF-4I (14 ng) binding to C3P by increasing concentrations of myristoyl(14:0)-CoA. The gel section containing radiolabeled C3P bound to His-HNF-4I dimer is shown.
His-HNF-4α and acyl-CoA (as indicated) were preincubated for 30 min at 22° C. in 11 mM Hepes (pH 7.9) containing 50 mM KCl, 1 mM dithiothreitol. 2.5 mM MgCl2, 10% glycerol, 1 μg of poly(dI-dC) in a final volume of 20 μl. ^32P-labeled oligonucleotide (0.1 ng) consisting of the human C3P apo CIII promoter sequence,(−87/−66)^6 was then added, and incubation was continued for an additional 15 min. Protein-DNA complexes were resolved by 5% nondenaturing polyacrylamide gel in 0.6×TBE and quantitated by PhosphorImager analysis.
HNF-4α activity as a function of binding of long chain acyl-CoAs was evaluated by studying the binding of HNF-4α to its cognate C3P element of the apo CIII promoter sequence (−87/−66)^6 in the presence or absence of added acyl-CoAs of variable chain length, degree of saturation, and degree of substitution. Binding was verified by using a gel mobility shift assay. […] Activation was concentration dependent and maximal in the presence of myristoyl(14:0)-CoA added within a concentration range required for its binding to HNF-4α.

HNF-4α [2] = target: T2, HNF-4α (Rattus norvegicus, UniProt P22449); test: Ligand binding assay with [3H]palmitoyl(16:0)-CoA on recombinant GST-HNF-4α(LBD) or His-HNF-4α; conditions: for EC50: competition with 8 nM [3H]palmitoyl(16:0)-CoA, read-out: EC50 (50% specific competition)
T2 construct: GST-HNF-4α(LBD) fusion protein consisting of amino acids 96-455 of wild type HNF-4α fused to GST; fused on or other part: Glutathione-S-transferase (GST) at the N-terminus of the LBD construct; 6-histidine tag on the full-length construct
T2 sequence (P22449 105-464 isoform P22449-2 limits assumed): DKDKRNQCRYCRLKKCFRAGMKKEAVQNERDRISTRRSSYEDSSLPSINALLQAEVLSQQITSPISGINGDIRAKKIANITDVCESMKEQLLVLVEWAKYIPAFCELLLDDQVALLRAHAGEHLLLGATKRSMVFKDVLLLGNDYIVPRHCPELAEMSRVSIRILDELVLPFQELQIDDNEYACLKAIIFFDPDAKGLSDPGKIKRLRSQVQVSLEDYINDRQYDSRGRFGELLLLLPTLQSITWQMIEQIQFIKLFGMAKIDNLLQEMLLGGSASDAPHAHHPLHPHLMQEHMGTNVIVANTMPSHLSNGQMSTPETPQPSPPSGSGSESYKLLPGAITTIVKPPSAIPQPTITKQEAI
Procedure: a. […] The respective recombinant proteins are incubated to equilibrium with [^3H]palmitoyl(16:0)-CoA (0.05 μCi) and with increasing nonlabeled palmitoyl(16:0)-CoA as indicated.
b. […] The respective recombinant proteins are incubated with 8 nM of [^3H]palmitoyl(16:0)-CoA (60 Ci/mmol) and with increasing nonlabeled myristoyl(14:0)-CoA as indicated. Percent bound refers to radiolabeled [^3H]palmitoyl(16:0)-CoA in the bound fraction. […] Percent bound refers to radiolabeled [^3H]palmitoyl(16:0)-CoA in the bound fraction.
Rat HNF-4α1 cDNA(pLEN4S)^1 was subcloned into the glutathione-S-transferase (GST) encoding pGEX-2T plasmid (Pharmacia) and the resultant plasmid was cleaved with smaI and AccI and religated to yield the GST-HNF-4α(LBD) fusion plasmid. […] The full length HNF-4α1 cDNA cloned into 6His-pET11d vector was expressed in E.coli BL21 (DE3)plysS.
Recombinant GST-HNF-4α(LBD) (100 pmol) or His-HNF-4α (100 pmol) were incubated for 60 min at 22° C. with [^3H]palmitoyl(16:0)-CoA (American RadiolabeledChemicals) in 100 μl of 10 mM phosphate buffer (pH 7.4). Competitor ligands or solvent carrier were added as indicated. Free and HNF-4α bound ^3[H]palmitoyl(16:0)-CoA were separated by […] and bound ligand was quantified by liquid scintillation counting. Nonspecific binding of [^3H]palmitoyl(16:0)-CoA was determined by its binding to the GST moiety or to carbonic anhydrase as nonrelevant protein.
Binding was exemplified with either the ligand binding domain of HNF-4α fused to glutathione-s-transferase (GST-HNF-4α(LBD)) or the full length HNF-4α protein tagged by 6 histidines (His-HNF-4α).

HNF-4α [3] = target: T1, HNF-4α; test: In vitro transcription assay induced by His-HNF-4α with HeLa nuclear extract; assay type: biochemical; set-up: The full length HNF-4α1 cDNA cloned into 6His-pET11d vector was expressed in E.coli BL21 (DE3)plysS; 6His; made in house; host or cells: E. coli BL21 (DE3)plysS
Procedure: a. Representative experiments showing in vitro transcription of the test template in the presence of increasing concentrations of His-HNF-4I and in the absence (lanes 1-3, 7-9) or presence of 10 μM of added palmitoyl(16:0)-CoA (lanes 4-6) or stearoyl(18:0)-CoA (lanes 10,11) as indicated. Correctly initiated transcripts of the test and control templates are denoted by (→) and ? , respectively.
b. HNF-4I-induced in vitro transcription in the absence (empty bars) or presence of 10 μM each of added palmitoyl(16:0)-CoA (filled bars) or stearoyl(18:0)-CoA (hatched bars). Fold transcription indicates the ratio of specific transcript produced by the test template over transcript from the control template normalized to the ratio observed without HNF-4a. The figure summarizes 5 independent experiments for each acyl-CoA. *-Significant as compared with the respective value in the absence of added ligand.
Reaction mixture contained 20 mM Hepes-KOH (pH 7.9), 5 mM MgCl2, 60 mM KCl, 8% glycerol, 2 mM DTT, 1 mM 3′-O-methyl-GTP, 10 units of T1RNase, 20 units of RNasin, 0.5 μg sonicated salmon sperm DNA and His-HNF-4α and test ligand as indicated. The mixture was preincubated for 30 min at 22° C. followed by adding 10 ng of pAdML200 control template consisting of the adenovirus major-late promoter (−400/+10) linked to a 200 bp G-less cassette and 200 ng of the test template consisting of three C3P copies of the apo CIII promoter sequence (−87/−66) upstream to a synthetic ovalbumin TATA box promoter in front of a 377 bp-G-less cassette. The mixture was further preincubated for 10 min at 22° C. followed by adding 40 μg of HeLa nuclear extract with additional preincubation for 30 min at 30° C. 0.5-mM ATP, 0.5 mM CTP, 25 μM UTP, and 10 μCi of [α-^32P]UTP (s.a. […], Amersham) were then added and the complete reaction mixture was incubated for 45 min at 30° C. in a final volume of 25 μl. The reaction was terminated by adding 175 μl of stop mix (0.1 M sodium acetate (pH 5.2), 10 mM EDTA, 0.1% SDS, 200 μg/ml tRNA) followed by phenol extraction and ethanol precipitation. RNA was resuspended in sample buffer containing 80% formamide and 10 mM Tris-HCl (pH 7.4) and separated on 5% polyacrylamide gel containing 7 M urea in TBE. Correctly initiated transcripts were quantitated by PhosphorImager analysis. The test DNA template was constructed by inserting into pC2AT19 plasmid a PCR-amplified oligonucleotide prepared by using the (C3P)3-TK-CAT plasmid as template and consisting of three copies of the C3P element of the Apo CIII promoter sequence (−87/−66) having an ECoRI and SSTI sites at the 5′ and 3′ ends, respectively. The resultant plasmid was cleaved with sphI and sacI and ligated to a synthetic oligonucleotide (5′-CGAGGTCCAC-[…]-3′) containing sequences of the HSV thymidine kinase promoter (−41/−29) and of the chicken ovalbumin promoter (−33/−21).
The effect of agonistic and antagonistic HNF-4α-ligands was further evaluated by analyzing the in vitro transcription rate, catalyzed by added HeLa nuclear extract and induced by recombinant HNF-4α, of a test template consisting of a 377 bp G-less cassette promoted by sequences of the HSV thymidine kinase and chicken ovalbumin promoters and enhanced by three C3P copies of the apo Clil gene promoter. Transcriptional activation by HNF-4α was evaluated in the presence and in the absence of added representative long chain fatty acyl-CoAs. […]

SMILES | effect on His-HNF-4α binding to C3P oligonucleotide (HNF-4α [1]; gel mobility shift, 10 μM acyl-CoA (FIG. 2)) | direct effect on HNF-4α (summary) (HNF-4α [1]) | EC50 (HNF-4α [2]; GST-HNF-4α(LBD) or His-HNF-4α) [nM] | effect on HNF-4α induced in vitro transcription (HNF-4α [3]; 10 μM added acyl-CoA (FIG. 3)) | HNF-4α transcriptional activity, agonist/antagonist character (summary) (HNF-4α [3]; summary statement of Example 4) | maximal binding (HNF-4α [2]; Scatchard analysis) | binding ratio at saturation (HNF-4α [2]; at saturation (FIG. 1A)) | Kd (HNF-4α [2]; saturation binding of [3H]palmitoyl(16:0)-CoA, Scatchard analysis, GST-HNF-4α(LBD) or His-HNF-4α, read-out: dissociation constant (Kd)) [nM]
CC/C=C\C/C=C\C/C=C\CCCCCCCC(=O)SCCNC(=O)CCNC(=O)[C@H](O)C(C)(C)COP(=O)(O)OP(=O)(O)OC[C@H]1O[C@@H](n2cnc3c(N)ncnc32)[C@H](O)[C@@H]1OP(=O)(O)O [Linolenoyl(18:3)-CoA] | potent inhibition | direct inhibition |  |  |  |  |  | 
CC/C=C\C/C=C\C/C=C\C/C=C\C/C=C\C/C=C\CCC(=O)SCCNC(=O)CCNC(=O)[C@H](O)C(C)(C)COP(=O)(O)OP(=O)(O)OC[C@H]1O[C@@H](n2cnc3c(N)ncnc32)[C@H](O)[C@@H]1OP(=O)(O)O [Docosahexaenoyl(22:6)-CoA] |  | direct inhibition | 1600 |  |  |  |  | 
CC/C=C\C/C=C\C/C=C\C/C=C\C/C=C\CCCC(=O)SCCNC(=O)CCNC(=O)[C@H](O)C(C)(C)COP(=O)(O)OP(=O)(O)OC[C@H]1O[C@@H](n2cnc3c(N)ncnc32)[C@H](O)[C@@H]1OP(=O)(O)O [Eicosapentaenoyl(20:5)-CoA] |  | direct inhibition | 600 |  |  |  |  | 
CCCCCCCCCCCCCCCC(=O)SCCNC(=O)CCNC(=O)[C@H](O)C(C)(C)COP(=O)(O)OP(=O)(O)OC[C@H]1O[C@@H](n2cnc3c(N)ncnc32)[C@H](O)[C@@H]1OP(=O)(O)O [Palmitoyl(16:0)-CoA, reference compound] |  |  | 2600 | activated | activators | 1 mol palmitoyl(16:0)-CoA/mol HNF-4I | ~1 mole of fatty acyl-CoA/mole of HNF-4α | 2600
